Holding throughout (type): biochemical
One assay concerns the target T1, hMMP 9 (Homo sapiens, UniProt P14780).
T1 construct: purchased R&D systems
The assay can be described thus: Residual enzyme activity of other metalloproteases. The conditions noted are these: read-out: Residual enzyme activity MMP9; for remaining activity at 10 µM: 10 μM inhibitor; for remaining activity at 200 µM: 200 μM inhibitor. In outline:
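Fluorogenic cleavage of internally quenched peptides; enzyme 5e-8 to 2e-10 M final, substrate 0.15–80 μM, inhibitor in buffer with 1% DMSO. MMPs activated beforehand with APMA.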

For a further assay, the target named is T2, hADAM 10 (Homo sapiens, UniProt O14672).
T2 construct: purchased R&D systems
T2 sequence (O14672 214-748): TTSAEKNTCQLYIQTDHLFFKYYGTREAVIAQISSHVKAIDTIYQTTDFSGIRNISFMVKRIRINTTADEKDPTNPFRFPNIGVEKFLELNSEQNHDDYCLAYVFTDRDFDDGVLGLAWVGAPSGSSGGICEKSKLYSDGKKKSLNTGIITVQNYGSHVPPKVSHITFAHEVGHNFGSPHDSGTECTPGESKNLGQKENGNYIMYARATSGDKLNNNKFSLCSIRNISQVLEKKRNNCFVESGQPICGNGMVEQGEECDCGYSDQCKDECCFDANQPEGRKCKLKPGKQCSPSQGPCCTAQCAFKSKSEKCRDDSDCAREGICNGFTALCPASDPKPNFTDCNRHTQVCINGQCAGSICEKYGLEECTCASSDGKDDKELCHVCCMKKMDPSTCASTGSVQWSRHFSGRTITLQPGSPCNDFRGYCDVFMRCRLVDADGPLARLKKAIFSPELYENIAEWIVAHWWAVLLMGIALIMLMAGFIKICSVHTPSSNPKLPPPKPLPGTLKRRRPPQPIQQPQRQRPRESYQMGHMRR
The assay can be described thus: Residual enzyme activity of other metalloproteases. The conditions noted are these: read-out: Residual enzyme activity ADAM10; for remaining activity at 10 µM: 10 μM inhibitor; for remaining activity at 200 µM: 200 μM inhibitor. In outline: (§1)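 Activity followed by cleavage of internally quenched peptide substrates (0.15 to 80 μM, 0.5% DMSO) with enzyme at 5e-8 M to 2e-10 M final and inhibitor in buffer with 1% DMSO. ADAM activity was run in a 60 μl format.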

The target in a further assay is T3, hADAM 17 (Homo sapiens, UniProt P78536).
T3 construct: purchased R&D systems
T3 sequence (P78536 215-824): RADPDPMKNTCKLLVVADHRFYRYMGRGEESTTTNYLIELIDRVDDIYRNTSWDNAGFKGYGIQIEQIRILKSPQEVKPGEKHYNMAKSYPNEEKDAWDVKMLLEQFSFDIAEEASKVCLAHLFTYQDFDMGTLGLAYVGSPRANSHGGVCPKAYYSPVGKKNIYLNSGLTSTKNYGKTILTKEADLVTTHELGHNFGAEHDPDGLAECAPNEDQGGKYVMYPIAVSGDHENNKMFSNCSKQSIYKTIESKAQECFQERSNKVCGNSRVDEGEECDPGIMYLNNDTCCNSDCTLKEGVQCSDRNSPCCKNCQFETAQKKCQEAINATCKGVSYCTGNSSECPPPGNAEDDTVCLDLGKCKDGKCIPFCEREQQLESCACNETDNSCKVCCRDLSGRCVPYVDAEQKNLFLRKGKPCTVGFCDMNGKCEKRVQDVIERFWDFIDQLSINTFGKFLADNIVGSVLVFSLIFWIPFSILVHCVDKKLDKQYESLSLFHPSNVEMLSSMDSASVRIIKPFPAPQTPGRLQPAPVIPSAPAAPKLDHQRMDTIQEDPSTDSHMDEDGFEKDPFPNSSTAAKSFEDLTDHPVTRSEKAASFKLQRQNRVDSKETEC
The assay can be described thus: Residual enzyme activity of other metalloproteases. The conditions noted are these: read-out: Residual enzyme activity ADAM17; for remaining activity at 10 µM: 10 μM inhibitor; for remaining activity at 200 µM: 200 μM inhibitor. In outline:
as §1

A further assay deals with T4, hMeprin α (Homo sapiens, UniProt Q16819).
T4 sequence (Q16819 66-746): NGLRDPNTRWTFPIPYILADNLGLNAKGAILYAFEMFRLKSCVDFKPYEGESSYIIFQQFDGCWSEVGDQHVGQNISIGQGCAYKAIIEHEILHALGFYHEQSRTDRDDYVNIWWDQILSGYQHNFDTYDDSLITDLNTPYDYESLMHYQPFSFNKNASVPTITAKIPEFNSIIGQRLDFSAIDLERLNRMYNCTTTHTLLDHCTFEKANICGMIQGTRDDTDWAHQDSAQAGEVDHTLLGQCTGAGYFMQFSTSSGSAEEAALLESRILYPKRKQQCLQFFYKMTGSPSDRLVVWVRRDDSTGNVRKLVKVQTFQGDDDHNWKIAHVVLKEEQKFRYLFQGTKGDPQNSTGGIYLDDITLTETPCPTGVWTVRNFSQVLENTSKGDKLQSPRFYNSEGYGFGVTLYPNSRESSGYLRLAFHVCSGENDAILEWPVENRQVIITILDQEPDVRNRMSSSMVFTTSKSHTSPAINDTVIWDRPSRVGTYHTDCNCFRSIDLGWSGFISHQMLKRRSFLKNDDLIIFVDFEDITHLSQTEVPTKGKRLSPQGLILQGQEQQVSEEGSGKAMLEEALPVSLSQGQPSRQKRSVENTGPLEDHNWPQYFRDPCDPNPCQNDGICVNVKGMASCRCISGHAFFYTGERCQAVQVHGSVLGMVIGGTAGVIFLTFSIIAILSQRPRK
The assay is described as follows: Enzymatic assay, quenched peptide substrate cleavage, method B. To be noted: geometric mean (geometric SD factor in parentheses); for IC50: read-out: Meprin alpha IC50. In outline: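 Cleavage of internally quenched peptides was read at 340/420 nm and 30° C., with enzyme at 5e-8 to 2e-10 M and substrate at 0.15–80 μM. Inhibitor solutions contained 1% DMSO and substrate 0.5% DMSO. Method B gave Ki(app) values via Morrison's equation, with kinetics measured in at least duplicate on separate days.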

A further assay addresses T5, hMMP 13 (Homo sapiens, UniProt P45452).
T5 construct: purchased R&D systems
The assay is described as follows: Residual enzyme activity of other metalloproteases. To be noted: read-out: Residual enzyme activity MMP13; for remaining activity at 10 µM: 10 μM inhibitor; for remaining activity at 200 µM: 200 μM inhibitor. The method, then:
(§2) A typical assay of 250 μl total volume measured in black 96 well plates consisted of 100 μl buffer, 50 μl enzyme at a final concentration of 5e-8 M to 2e-10 M, 50 μl substrate (0.15 to 80 μM, in buffer, 0.5% DMSO) and 50 μl inhibitor solution (in buffer, 1% DMSO). In case of 125 μl assay volume (black 96 half area well plates) all volumes were cut in half. Enzymatic activity of ADAMs was measured in 384 well plates with 60 μl total assay volume consisting of 20 μl inhibitor, 20 μl buffer, 10 μl enzyme and 10 μl substrate.
(§3) MMPs were activated prior to measurement by APMA (p-aminophenylmercuric acetate) treatment according to manufacturer's instructions (R&D systems).

The target in a further assay is T6, hMMP 2 (Homo sapiens, UniProt P08253).
T6 construct: purchased Abnova
T6 sequence (P08253 110-660): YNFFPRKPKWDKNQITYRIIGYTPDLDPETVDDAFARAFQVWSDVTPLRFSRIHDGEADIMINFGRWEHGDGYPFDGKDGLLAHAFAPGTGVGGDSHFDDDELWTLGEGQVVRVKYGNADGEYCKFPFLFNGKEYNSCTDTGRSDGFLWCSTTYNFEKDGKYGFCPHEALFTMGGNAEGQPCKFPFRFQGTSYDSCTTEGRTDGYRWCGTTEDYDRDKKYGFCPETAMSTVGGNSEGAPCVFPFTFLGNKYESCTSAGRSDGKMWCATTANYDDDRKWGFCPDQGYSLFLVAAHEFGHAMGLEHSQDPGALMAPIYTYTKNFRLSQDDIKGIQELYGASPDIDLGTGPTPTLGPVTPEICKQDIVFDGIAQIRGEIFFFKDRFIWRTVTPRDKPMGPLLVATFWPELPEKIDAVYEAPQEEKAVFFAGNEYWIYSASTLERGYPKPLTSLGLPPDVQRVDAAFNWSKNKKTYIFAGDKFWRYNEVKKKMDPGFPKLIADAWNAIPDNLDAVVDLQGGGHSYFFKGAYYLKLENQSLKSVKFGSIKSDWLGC
The assay can be described thus: Residual enzyme activity of other metalloproteases. To be noted: read-out: Residual enzyme activity MMP2; for remaining activity at 10 µM: 10 μM inhibitor; for remaining activity at 200 µM: 200 μM inhibitor. As for the experimental part:
as §2, §3

The IC50 is the point on the concentration scale where inhibition reaches its midpoint.

The structures appear in SMILES notation.

T1 sequence (P14780 107-707 limits assumed): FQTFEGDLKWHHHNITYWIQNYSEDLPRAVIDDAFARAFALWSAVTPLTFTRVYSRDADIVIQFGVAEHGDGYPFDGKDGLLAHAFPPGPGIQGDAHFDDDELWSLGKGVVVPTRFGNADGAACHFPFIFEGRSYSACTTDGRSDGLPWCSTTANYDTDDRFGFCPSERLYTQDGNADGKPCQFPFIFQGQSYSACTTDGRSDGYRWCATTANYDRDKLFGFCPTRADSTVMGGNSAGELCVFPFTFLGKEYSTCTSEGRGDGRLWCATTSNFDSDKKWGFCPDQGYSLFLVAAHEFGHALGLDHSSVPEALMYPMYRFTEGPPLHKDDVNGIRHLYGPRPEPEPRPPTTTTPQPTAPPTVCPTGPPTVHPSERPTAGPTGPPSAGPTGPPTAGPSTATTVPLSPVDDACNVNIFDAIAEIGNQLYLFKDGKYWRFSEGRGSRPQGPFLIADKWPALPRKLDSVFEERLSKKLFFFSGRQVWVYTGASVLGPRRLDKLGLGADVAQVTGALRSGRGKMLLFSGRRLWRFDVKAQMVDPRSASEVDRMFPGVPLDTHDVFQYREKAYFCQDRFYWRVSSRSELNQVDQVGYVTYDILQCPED

Consider `O=C(Cc1c(-c2ccccc2)nn(Cc2ccc3c(c2)OCO3)c1-c1ccccc1)NO` [Example 43, 2-[1-(1,3-Benzodioxol-5-ylmethyl)-3,5-diphenyl-1H-pyrazol-4-yl]ethanehydroxamic acid], for which the remaining activity at 10 µM was 74% at hMMP 9; 69% at hADAM 10; 21% on hADAM 17; 78% at hMMP 13; 77% at hMMP 2. For the same molecule, the remaining activity at 200 µM at hMMP 9 was 60%; at hADAM 10 it was 39%; at hADAM 17 it was 4%; at hMMP 13, 51%; at hMMP 2 it was 60%. For the same molecule, the Ki at hMeprin α (Morrison's equation, read-out: Meprin alpha Ki(app)) came out at 0.59 nM. In addition, on hMeprin α, the IC50 stood at 0.75 nM.

For `O=C(Cc1c(-c2ccccc2)n[nH]c1-c1ccccc1)NO` [Example 1, 2-(3,5-Diphenyl-1H-pyrazol-4-yl)ethanehydroxamic acid], the remaining activity at 10 µM was 81% on hMMP 9; 73% on hADAM 10; 61% at hADAM 17; 75% on hMMP 13; 104% on hMMP 2. The remaining activity at 200 µM on hMMP 9 amounted to 27%; at hADAM 10, 23%; on hADAM 17, 7%; at hMMP 13 it was 67%; on hMMP 2, 61%. The IC50 on hMeprin α is 1 nM.

The values above are taken from patent US20250388544A1, “HETEROAROMATIC INHIBITORS OF ASTACIN PROTEINASES” (VIVORYON THERAPEUTICS N.V., priority 2019, published 2025).
